Results on 54 compounds are retold here after patent US6593357B1, “Pyrazole compositions useful as inhibitors of ERK” (Vertex Pharmaceuticals Incorporated, priority 2000, dated 2003).

One assay deals with ERK2 (Homo sapiens, UniProt P28482). Nature of the assay: ERK2 inhibition, spectrophotometric coupled-enzyme assay. It counts as biochemical. To be noted: ERK2 Inhibitory Activity (Ki class), activated ERK2 10 nM, 65 μM ATP, 30° C., pH 7.5.
Chain of ERK2 (P28482 whole entry): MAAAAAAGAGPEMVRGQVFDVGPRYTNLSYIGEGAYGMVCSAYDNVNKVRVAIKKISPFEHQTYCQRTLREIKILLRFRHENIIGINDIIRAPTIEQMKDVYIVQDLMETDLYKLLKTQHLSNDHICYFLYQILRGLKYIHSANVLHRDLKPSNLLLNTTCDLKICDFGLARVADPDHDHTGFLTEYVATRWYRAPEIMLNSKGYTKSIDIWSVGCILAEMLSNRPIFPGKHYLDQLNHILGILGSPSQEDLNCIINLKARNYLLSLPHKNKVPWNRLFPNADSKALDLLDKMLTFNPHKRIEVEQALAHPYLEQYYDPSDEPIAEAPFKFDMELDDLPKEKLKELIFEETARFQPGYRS
As a reminder, the Ki is a measure of affinity in units of concentration, obtained from inhibition or displacement. Turning to `CCN1CCCC1CNC(=O)c1cc(-c2n[nH]cc2-c2cccc(Cl)c2)c[nH]1` (stereo not drawn) [II-286], the inhibition constant Ki is > 5 µM.

Still in this assay, the particulars now being: activated ERK2 10 nM, 65 μM ATP, 30° C., pH 7.5; read-out: ERK2 Inhibitory Activity (Ki class).
`COc1ccc(C[C@H](CO)NC(=O)c2cc(-c3[nH]ncc3-c3cccc(Br)c3)c[nH]2)cc1OC` [II-296]: the Ki is > 5 µM.

On to `Nc1ccc(CNC(=O)c2cc(-c3[nH]ncc3-c3cccc(Br)c3)c[nH]2)cc1` [II-109], for which the Ki is < 1 µM.

With `O=C(c1cc(-c2[nH]ncc2-c2ccccc2)c[nH]1)N1CCOCC1` [II-19], the Ki was < 1 µM.

As for `Cc1cccc(-c2cn[nH]c2-c2c[nH]c(C(=O)NCc3ccccc3)c2)c1` [II-90], the Ki was < 1 µM.

With `COc1cccc(N2CCN(C(=O)c3cc(-c4[nH]ncc4-c4cccc(Br)c4)c[nH]3)CC2)c1` [II-122], the inhibition constant (Ki) fell in the range of 1 to 5 µM.

As to `COc1cccc(-c2cn[nH]c2-c2c[nH]c(C(=O)NCc3ccco3)c2)c1` [II-30], the Ki was < 1 µM.

On to `CC(C)NC(=O)c1cc(-c2[nH]ncc2-c2cccc(C(=O)O)c2)c[nH]1` [II-160], for which the Ki is 1 to 5 µM.

Regarding `O=C(c1cc(-c2[nH]ncc2-c2ccc(Cl)c(Cl)c2)c[nH]1)N1CCOCC1` [II-127], the inhibition constant (Ki) was in the range of 1 to 5 µM.

Consider `O=C(c1cc(-c2[nH]ncc2-c2cccc(Br)c2)c[nH]1)N1CCN(c2ccc(F)cc2)CC1` [II-128], for which the Ki lay in the range of 1 to 5 µM.

With `O=C(NCc1ccccc1)c1cc(-c2[nH]ncc2-c2ccc(Cl)cc2)c[nH]1` [II-92], the inhibition constant Ki was < 1 µM.

As to `O=C(NCc1ccccc1)c1cc(-c2[nH]ncc2-c2cccc(F)c2)c[nH]1` [II-63], the inhibitory constant (Ki) is < 1 µM.

On to `CCOC(=O)c1cc(-c2[nH]ncc2-c2cccc(Br)c2)c[nH]1` [II-157], for which the inhibition constant Ki was 1 to 5 µM.

As for `Cc1ccc(N2CCN(C(=O)c3cc(-c4[nH]ncc4-c4cccc(Br)c4)c[nH]3)CC2)cc1` [II-126], the Ki is 1 to 5 µM.

Regarding `O=C(NC(CO)(CO)CO)c1cc(-c2[nH]ncc2-c2cccc(Br)c2)c[nH]1` [II-295], the Ki is > 5 µM.

Regarding `O=C(NCc1cccnc1)c1cc(-c2[nH]ncc2-c2ccc(F)c(F)c2)c[nH]1` [II-116], the Ki is 1 to 5 µM.

`O=C(NOCc1ccccc1)c1cc(-c2[nH]ncc2-c2ccc(F)cc2)c[nH]1` [II-146]: the Ki was in the range of 1 to 5 µM.

Regarding `COc1cccc(-c2cn[nH]c2-c2c[nH]c(C(=O)NCCN(C)C)c2)c1` [II-25], the inhibition constant Ki was > 5 µM.

As for `O=C(NCc1ccccc1)c1cc(-c2[nH]ncc2-c2cccc([N+](=O)[O-])c2)c[nH]1` [II-79], the Ki was < 1 µM.

Take `CCOC(=O)c1cc(-c2[nH]ncc2-c2ccc(OC)cc2)c[nH]1` [II-8]: the Ki is > 5 µM.

Regarding `Cc1cccc(-c2cn[nH]c2-c2c[nH]c(C(=O)NC(CO)c3ccccc3)c2)c1` (stereo not drawn) [II-75], the inhibition constant Ki is < 1 µM.

On to `O=C(NCc1ccccc1)c1cc(-c2[nH]ncc2-c2cccc(Br)c2)c[nH]1` [II-299], for which the Ki was > 5 µM.

Turning to `O=C(c1cc(-c2[nH]ncc2-c2cccc(Br)c2)c[nH]1)N(CCCO)Cc1ccccc1` [II-139], the Ki lay in the range of 1 to 5 µM.

As to `COc1cccc(-c2cn[nH]c2-c2c[nH]c(C(=O)N3CCOCC3)c2)c1` [II-135], the Ki lay within 1 to 5 µM.

Turning to `CN(Cc1ccccc1)C(=O)c1cc(-c2[nH]ncc2-c2cccc(Br)c2)c[nH]1` [II-83], the Ki is < 1 µM.

As for `O=C(NCc1ccncc1)c1cc(-c2[nH]ncc2-c2cccc([N+](=O)[O-])c2)c[nH]1` [II-289], the Ki is > 5 µM.

For the compound `COc1cccc(-c2cn[nH]c2-c2c[nH]c(C(=O)NCc3cccnc3)c2)c1` [II-26], the Ki was < 1 µM.

As for `COc1ccc(-c2cn[nH]c2-c2c[nH]c(C(=O)NCc3ccccc3)c2)cc1` [II-117], the inhibition constant Ki fell in the range of 1 to 5 µM.

On to `NNC(=O)c1cc(-c2[nH]ncc2-c2cccc([N+](=O)[O-])c2)c[nH]1` [II-3], for which the inhibition constant (Ki) is < 1 µM.

For the compound `CCOC(=O)c1cc(-c2[nH]ncc2-c2ccc(N)cc2)c[nH]1` [II-164], the Ki was > 5 µM.

Turning to `O=C(c1cc(-c2[nH]ncc2-c2cccc(Cl)c2F)c[nH]1)N1CCOCC1` [II-129], the Ki lay in the range of 1 to 5 µM.

For `O=C(c1cc(-c2[nH]ncc2-c2cccc(Br)c2)c[nH]1)N1CCc2ccccc2C1` [II-87], the Ki was < 1 µM.

`O=C(NCc1ccccc1)c1cc(-c2[nH]ncc2-c2ccc(F)cc2)c[nH]1` [II-111]: the Ki is < 1 µM.

For `O=C(NCC1CCCO1)c1cc(-c2[nH]ncc2-c2cc(Cl)cc(Cl)c2)c[nH]1` (stereo not drawn) [II-78], the Ki was < 1 µM.

On to `O=C(NCC1CCCO1)c1cc(-c2[nH]ncc2-c2ccc(F)c(Cl)c2)c[nH]1` (stereo not drawn) [II-100], for which the Ki was < 1 µM.

Take `O=C(NC(CCO)c1ccccc1)c1cc(-c2[nH]ncc2-c2cccc(Br)c2)c[nH]1` (stereo not drawn) [II-86]: the Ki is < 1 µM.

Regarding `CC1CCN(C(=O)c2cc(-c3[nH]ncc3-c3cccc(Cl)c3)c[nH]2)CC1` [II-136], the Ki was 1 to 5 µM.

Regarding `O=C(N[C@@H](CO)Cc1cnc[nH]1)c1cc(-c2[nH]ncc2-c2cccc(Br)c2)c[nH]1` [II-294], the Ki was > 5 µM.

`COc1cccc(-c2cn[nH]c2-c2c[nH]c(C(=O)N3CCOCC3)c2)c1` [II-27]: the Ki was < 1 µM.

Take `COc1cccc(CNC(=O)c2cc(-c3[nH]ncc3-c3cccc(Br)c3)c[nH]2)c1` [II-46]: the inhibition constant Ki is < 1 µM.

As to `CN1CCN(C(=O)c2cc(-c3[nH]ncc3-c3ccccc3)c[nH]2)CC1` [II-21], the Ki was > 5 µM.

Turning to `COc1ccccc1CNC(=O)c1cc(-c2[nH]ncc2-c2cccc(Br)c2)c[nH]1` [II-69], the inhibition constant Ki was < 1 µM.

In the case of `CCN(C)C(=O)c1cc(-c2[nH]ncc2-c2cccc(F)c2)c[nH]1` [II-291], the Ki was > 5 µM.

As to `Nc1cccc(-c2cn[nH]c2-c2c[nH]c(C(=O)NCc3ccccc3)c2)c1` [II-131], the Ki lay in the range of 1 to 5 µM.

Take `CC(C)NC(=O)c1cc(-c2[nH]ncc2-c2ccccc2)c[nH]1` [II-20]: the Ki was < 1 µM.

Take `O=C(c1cc(-c2[nH]ncc2-c2cccc(Br)c2)c[nH]1)N(Cc1ccccc1)[C@H](CO)c1ccccc1` [II-288]: the Ki lay within 1 to 5 µM.

Turning to `O=C(NCc1cccnc1)c1cc(-c2[nH]ncc2-c2ccccc2)c[nH]1` [II-18], the inhibition constant Ki is < 1 µM.

As to `CC(C)(C)OC(=O)N1CCCC(CNC(=O)c2cc(-c3[nH]ncc3-c3cccc(Cl)c3F)c[nH]2)C1` (stereo not drawn) [II-121], the inhibitory constant (Ki) is 1 to 5 µM.

On to `COc1cc(OC)c(CNC(=O)c2cc(-c3[nH]ncc3-c3cccc(Br)c3)c[nH]2)c(OC)c1` [II-118], for which the Ki was in the range of 1 to 5 µM.

For `O=C(c1cc(-c2[nH]ncc2-c2cccc(Br)c2)c[nH]1)N1CCC(O)(c2ccc(Br)cc2)CC1` [II-123], the inhibition constant Ki was 1 to 5 µM.

Take `COc1ccc(-c2cn[nH]c2-c2c[nH]c(C(=O)NOCc3ccccc3)c2)cc1` [II-133]: the inhibition constant Ki lay in the range of 1 to 5 µM.

As for `CC1CCN(C(=O)c2cc(-c3[nH]ncc3-c3ccccc3)c[nH]2)CC1` [II-166], the Ki was > 5 µM.

Take `CCOC(=O)c1cc(-c2[nH]ncc2-c2cccc([N+](=O)[O-])c2)c[nH]1` [II-6]: the Ki was < 1 µM.

As to `COc1cc(CNC(=O)c2cc(-c3[nH]ncc3-c3cccc(Br)c3)c[nH]2)cc(OC)c1` [II-68], the Ki was < 1 µM.
